The values below come from patent US20050014690A1, “Styryl acrylonitrile compounds and their use to promote myelopoiesis” (priority 2001, published 2005).

The subject of data set [1] is cells of the myeloid lineage. The data set is described as follows: Promotion of myelopoiesis (general statement). Conditions: in vitro, ex vivo and in vivo.
The test system of data set [2] is normal bone marrow cells. Description: CFU-GEMM colony assay, normal bone marrow, compound present for 14 days. Conditions: for number of CFU-GM or CFU-C colonies: in vitro assays of human bone marrow cell growth, continual exposure for 14 days, about 1-20 μM. Type of data set: cell-based, human. How it is done: Treatment of normal bone marrow in culture with CR4. The CFU-GEMM assay was performed according to Fauser and Messner (Blood, 52(6) 1243-8,1978) and Messner and Fausser (Blut 41(5) 327-33, 1980) with some variations. In brief, heparinized bone marrow cells were layered over Percoll (1.077 gm/ml) and centrifuged at 400 g at 4° C. for 10 minutes to remove neutrophils and RBCs. The fractionated BM cells at 2×10^5 cells/ml were cultured in IMDM containing 0.9% (vol/vol) methylcellulose supplemented with 30% FCS or normal human plasma, a cocktail of cytokines containing G-CSF (10 ng/ml), IL-3 (40 U/ml), MGF (50 ng/ml), Erythropoietin (2u/ml) or TPO (10 ng/ml) and 5×10^−5M μ-2-mercaptoethanol. CR4 was added to the cells in concentrations indicated in FIG. 1 and the culture mixture was plated in 1 ml volumes into 35 mm petri dishes and incubated at 37° C., 5% CO2 in a humidified atmosphere. All cultures were evaluated at 14 days for the number of BFU-E colonies (defined as aggregates of more than 500 hemaglobinized cells or, 3 or more erythroid subcolonies), CFU-C colonies (defined as granulocyte or monocyte-macrophage cells or both), and CFU-GEMM colonies (a mixed population comprising of all elements). All control samples in this and other examples were treated with the matching concentration of the solvent (DMSO) for the compounds in the same medium or in the case of Example 21, PBS, as indicated. CFU-C stimulation with CR4 dose response. Bone marrow cells were prepared as in Example 15. CR4 was added to the cells at 10 or 20 μM. The culture mixture was plated in 1 ml volumes into 35 mm petri dishes and incubated at 37° C., 5% CO2 in a humidified atmosphere. All cultures were evaluated at 14 days for the number of CFU-C colonies (defined as granulocyte or monocyte-macrophage cells or both). […] Stimulation of CFU-C colony formation by CR11. Bone marrow cells were prepared as in Example 15. CR11 was added to the cells at 10 or 20 μM. The culture mixture was plated in 1 ml volumes into 35 mm petri dishes and incubated at 37° C., 5% […] in a humidified atmosphere. All cultures were evaluated at 14 days for the number of CFU-C colonies. […] CFU-C stimulation with CR19 dose response. Bone marrow cells were prepared as in Example 15. The culture mixture was plated in 1 ml volumes into 35 mm petri dishes and incubated at 37° C., 5% CO2 in a humidified atmosphere. All cultures were evaluated at 14 days for the number of BFU-E and CFU-C colonies.

The test system of data set [3] is mice. The data set is described as follows: Peripheral white blood cell count in mice. Type of data set: in vivo. Conditions: for white blood cell counts: mice injected daily, peripheral blood after 14 and 17 days, FIG. 9. The procedure: Promotion of peripheral white blood cell count by CR11. Mice were injected daily with CR11. 250 μl of 400 μM CR11 was injected in PBS. Controls were injected with matching concentrations of CR11 solvent (DMSO) in PBS, or recombinant human G-CSF. After 14 and 17 days blood peripheral blood samples were taken and white blood cell counts determined. Results from each group were averaged.

The test system of data set [4] is mice. Description: Granulocytes in the spleen of treated mice. Type of data set: in vivo.
Data set [5] relates to transformed cell. Description: Transformed cell growth. Type of data set: cell-based.

In the case of `COc1cc(/C=C/C=C(C#N)C#N)cc(OC)c1O` [CR7, (E,E)-2-cyano-3-(3,5-dimethoxy-4-hydroxystyryl)acrylonitrile], the promoting myelopoiesis entry in data set [1] is recorded as “capable of promoting myelopoiesis”.

With `COc1cc(/C=C/C=C(\C#N)C(=O)NCCc2ccccc2)cc(OC)c1O` [CR8, (E,E)-2-(Phenylethylamido)-3-(3,5-dimethoxy-4-hydroxystyryl)acrylonitrile], in data set [1], the promoting myelopoiesis entry is recorded as “capable of promoting myelopoiesis”.

Consider `COc1cc(/C=C/C=C(\C#N)C(=O)NCc2ccc(O)c(O)c2)cc(OC)c1O` [CR11, (E,E)-2-(3,4-Dihydroxybenzylaminocarbonyl)-3-(3,5-dimethoxy-4-hydroxystyryl)acrylonitrile], for which the CFU-C colony formation entry is “elevated colony numbers slightly” in data set [2] (10 μM, 14 days) and “significantly increased” in data set [2] (20 μM, 14 days). Also, the “toxicity to normal bone marrow cells” value in data set [2] (14 days, until concentrations of 20 μM or greater) is given as “minimal toxicity”. Moreover, the “number of CFU-GM or CFU-C colonies” value in data set [2] was “effective in increasing”. Besides, the “white blood cells in the peripheral blood” value in data set [3] (SCI mouse model, similar kinetics to G-CSF treated mice) is listed as “Increased numbers”. For the same molecule, in data set [3], the “white blood cell counts” value is listed as “significantly increased”. In addition, in data set [4] (daily injection, SCI mouse model), the normal splenic granulocytes result is “tremendous increase”. Also, the “non-specific damage to the animal” value in data set [4] (doses required to promote myelopoiesis, one month of continual administration) is “did not result in detectable non-specific damage”. Further, the transformed cell growth result in data set [5] is “do not promote”. Besides, in data set [1], the promoting myelopoiesis result is “capable of promoting myelopoiesis”.

Consider `N#C/C(=C\C=C\c1ccccc1)C(=O)NCc1ccc(O)c(O)c1` [CR19, (E,E)-2-(3,4 Dihydroxybenzylaminocarbonyl)-3-styrylacrylonitrile], for which the CFU-C colony formation result in data set [2] (2.5 μM, 14 days, FIG. 8) is listed as “significantly increased”. Further, the “number of CFU-GM or CFU-C colonies” value in data set [2] was “effective in increasing”. Moreover, in data set [5], the transformed cell growth result is “do not promote”. Moreover, in data set [1], the promoting myelopoiesis entry is recorded as “capable of promoting myelopoiesis”.

Turning to `COc1cc(/C=C/C=C(\C#N)C(=O)NCc2ccccc2)ccc1O` [CR56, (E,E)-2-(benzylaminocarbonyl)-3-(3-methoxy-4-hydroxystyryl)acrylonitrile], the promoting myelopoiesis entry in data set [1] is given as “capable of promoting myelopoiesis”.

B1: G-CSF: recombinant human G-CSF (Granulocyte-Colony Stimulating Factor), injected as positive control (protein, UniProt P09919 31-207, looked up)
Granulocyte …: TPLGPASSLPQSFLLKCLEQVRKIQGDGAALQEKLVSECATYKLCHPEELVLLGHSLGIPWAPLSSCPSQALQLAGCLSQLHSGLFLYQGLLQALEGISPELGPTLDTLQLDVADFATTIWQQMEELGMAPALQPTQGAMPAFASAFQRRAGGVLVASHLQSFLEVSYRVLRHLAQP
In the case of B1, in data set [3], the “white blood cell counts” value is given as “significantly increased”.
